This is an account of results in BindingDB's records for patent US20250057848 (Neurim Pharmaceuticals (1991), 2025).

For the experiment, the target named is Neurotensin receptor type 1 (Homo sapiens, UniProt P30989). As to the kind of experiment: Binding of Neurotensin to the NTSR1 Receptor. An excerpt:
However, the potency of GAL 475 at these receptors was lower than 1 micromolar and therefore not considered to be pharmacologically interesting. […] GAL475 was subsequently tested for PAM activity at the human NTS1 (FAST-0330I) and NTS2 (FAST-0331I) receptors, at 100-50,000 nanomolar concentrations.

Neurotensin receptor type 1, sequence (P30989 whole entry, the tested form may be a part): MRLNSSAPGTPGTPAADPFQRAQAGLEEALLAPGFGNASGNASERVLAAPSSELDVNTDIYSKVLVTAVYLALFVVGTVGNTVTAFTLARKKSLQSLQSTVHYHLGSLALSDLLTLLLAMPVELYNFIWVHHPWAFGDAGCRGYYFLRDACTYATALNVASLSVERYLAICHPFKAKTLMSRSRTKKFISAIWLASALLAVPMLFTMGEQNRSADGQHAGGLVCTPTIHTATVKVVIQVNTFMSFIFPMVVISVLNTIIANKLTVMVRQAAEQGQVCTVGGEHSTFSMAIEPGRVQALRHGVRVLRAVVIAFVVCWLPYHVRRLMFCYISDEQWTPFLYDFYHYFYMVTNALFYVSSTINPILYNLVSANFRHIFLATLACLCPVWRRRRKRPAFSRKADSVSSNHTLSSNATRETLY

By EC50 is commonly meant the concentration at which the effect is half-maximal. Low values mean higher potency in that assay, high ones lower potency in that assay. Take `CCCNc1nc(NC)nc2c1NC(NC)N=C2NCC(C)(C)O` (stereo unspecified) [US20250057848, Compound GAL-475]: a half-maximal response (EC50) required 355 nM.
